Assay results reported in ChEMBL document CHEMBL4665850, “Effect of methoxyflavones contained in Kaempferia parviflora on CRE-mediated transcription in PC12D cells” (Bioorg Med Chem Lett, 2020).
Active and inactive are the calls of the source. The rule behind the calls is not given here.

Legend:
[1] = Effect on transcription in rat PC12D cells transfected with pCRE-firefly luciferase and pRL-null-renilla luciferase assessed as renilla luciferase activity at 30 uM by dual luciferase reporter gene assay; format: ADME, cell-based
[2] = Cytotoxicity against rat PC12D cells assessed as reduction in cell viability at 30 uM by MTT assay; format: cell-based
PC12D = experiment: Activation of CRE-mediated transcription in rat PC12D cells transfected with pCRE-firefly luciferase and pRL-null-renilla luciferase assessed as increase in CRE-driven firefly luciferase activity at 30 uM by dual luciferase reporter gene assay; format: functional, cell-based

Structure (SMILES) | Activity [1] | Activity [2] | Activity (PC12D)
COc1cc(OC)c2c(=O)c(OC)c(-c3ccc(OC)c(OC)c3)oc2c1 | Non-Toxic | Non-Toxic | Active
COc1ccc(-c2cc(=O)c3c(OC)cc(OC)cc3o2)cc1 [TRIMETHYLAPIGENIN] | Toxic | Non-Toxic | Active
COc1cc(O)c2c(=O)c(OC)c(-c3ccccc3)oc2c1 | Non-Toxic | Non-Toxic | inactive
COc1ccc(-c2cc(=O)c3c(O)cc(OC)cc3o2)cc1 [APIGENIN DIMETHYLETHER] | Non-Toxic | Non-Toxic | inactive
COc1cc(OC)c2c(=O)cc(-c3ccccc3)oc2c1 [CHRYSIN DIMETHYL ETHER] | Toxic | Non-Toxic | Active
COc1cc(OC)c2c(=O)cc(-c3ccc(OC)c(OC)c3)oc2c1 [TETRAMETHYLLUTEOLIN] | Toxic | Non-Toxic | Active
COc1cc(O)c2c(=O)c(OC)c(-c3ccc(OC)c(OC)c3)oc2c1 [RETUSIN] | Non-Toxic | Non-Toxic | inactive
COc1ccc(-c2oc3cc(OC)cc(O)c3c(=O)c2OC)cc1 | Non-Toxic | Non-Toxic | inactive
COc1cc(O)c2c(=O)cc(-c3ccccc3)oc2c1 [TECHTOCHRYSIN] | Non-Toxic | Non-Toxic | inactive
